Converted amounts (≈) assume the structure as drawn. Like-named read-outs stand apart in the source and are kept apart here.
Columns and labels:
[1] = target: EmCV Cap-independent translation; experiment: In vitro translation assay, FF-EmCV-Ren construct, cap-independent (Ren luciferase); assay type: biochemical, rabbit reticulocyte lysates
Outline: (§1)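 Luminescence read-out: firefly signal reports cap-dependent and Renilla signal IRES-dependent translation from FF-IRES-Ren bicistronic RNA in rabbit reticulocyte lysate. Lysate was pre-incubated with compound 1 h at room temperature before adding RNA and translating 2 h at 30° C.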

[2] = Aqueous Solubility in 1xPBS, pH 7.4; assay type: physicochemical; conditions: pH 7.4, aqueous buffer
A375 = experiment: 48 h Cytotoxicity A375; assay type: cell-based; conditions: Homo sapiens, A-375
[3] = target: HCV cap-independent translation; experiment: In vitro translation assay, FF-HCV-Ren construct, cap-independent (Ren luciferase); assay type: biochemical, rabbit reticulocyte lysates
Outline: as §1

[4] = Hepatic Microsome Stability Mouse; assay type: in vitro ADME
PAMPA Permeability = assay type: in vitro ADME
[5] = target: HCV cap-dependent translation; experiment: In vitro translation assay, FF-HCV-Ren construct, cap-dependent (FF luciferase); assay type: biochemical, rabbit reticulocyte lysates
Outline: as §1

[6] = Aqueous Solubility in pION's buffer; assay type: physicochemical
[7] = Hepatic Microsome Stability Human; assay type: in vitro ADME
[8] = target: EmCV Cap-dependent translation; experiment: In vitro translation assay, FF-EmCV-Ren construct, cap-dependent (FF luciferase); assay type: biochemical, rabbit reticulocyte lysates
Outline: as §1

eIF4F complex = target: T1, eIF4F complex (Mus musculus, UniProt Q6NZJ6); experiment: m7GTP pull-down assay, WT or 4E-BP DKO MEFs; assay type: cell-based; conditions: 6 hours, Torin1 250 nmol/L
T1 construct: endogenous in cells; host or cells: WT and 4E-BP1/2 double-knock-out MEFs
Experimental: As previously described (Dowling R J, et al. mTORC1-mediated cell proliferation, but not cell growth, controlled by the 4E-BPs. Science. 2010; 328:1172-6), cells growing in 100 mm plates were washed (cold PBS), collected, and lysed in 50 mM MOPS/KOH (7.4), 100 mM NaCl, 50 mM NaF, 2 mM EDTA, 2 mM EGTA, 1% NP40, 1% Na-DOC, 7 mM β-mercaptoethanol, protease inhibitors and phosphatase inhibitor cocktail (Roche). Lysates were incubated with m7-GDP-agarose beads (Jena Bioscience) for 20 minutes, washed 4 times with the washing buffer containing 50 mM MOPS/KOH (7.4), 100 mM NaCl, 50 mM NaF, 0.5 mM EDTA, 0.5 mM EGTA, 7 mM (3-mercaptoethanol, 0.5 mM PMSF, 1 mM Na3VO4 and 0.1 mM GTP, and bound proteins were eluted by boiling the beads in loading buffer. m7-GDP-agarose pulled down material was analyzed by Western blot analysis.
Indicated cultures (WT or DKO 4E-BP) were treated with Torin1 (250 nmol/L) or indicated Compound 38 concentrations for 6 hours. Western blots show respective protein levels in total cell lysates or following pull-down using m^7GTP agarose beads. […] P3-Actin served as a loading control and to exclude contamination in m^7GTP pull-down.

A375 tumors = experiment: A375 xenograft in nude mice; assay type: in vivo
Experimental: All animal studies were conducted in the SBMRI Animal Facility in accordance with the Institutional Animal Care and Use Committee guidelines. Six-week-old female nu/nu mice were purchased Harlan Laboratories (Indianapolis, Ind.) and allowed to acclimatize for 1 week. A375 cells (1×10^6, suspended in 200 μL sterile PBS) were injected into subcutaneous flank tissue. When the xenograft size reached ˜250 mm^3, mice were sorted into different groups. For PLX4720 and Compound 38 combination experiments, mice were either fed PLX4720-containing chow alone (AIN76A Roden Diet with 417 mg PLX4720/kg from Open Source Diets) for the control group or PLX4 720-containing chow plus an IP injection of 1 mg/kg Compound 38 twice a week. For MEKi plus Compound 38 experiments, PD0325901 at 20 mg/kg (formulated in 0.5% hydroxypropyl methylcellulose plus 0.2% Tween-80) was administered by oral gavage twice a week (Monday and Thursday) for the control group, or PD035901 plus IP injection of 1 mg/kg Compound 38 was administered twice a week (Tuesday and Friday). Mice were maintained in a pathogen-free environment with free access to food. Body weight and tumor volume were measured twice a week. Tumor size was measured with linear calipers and calculated using the formula: ([length in millimeters×(width in millimeters)2]/2). Mice were sacrificed after 4 weeks and tumors were fixed in Z-Fix (Anatech, Battle Creek, Mich.) and embedded in paraffin for immunohistochemistry.
A375 human melanomacells were injected subcutaneously (1×10^6) into the flank of nude mice and allowed to form established tumors. Once tumors reached approximately 250 mm3, mice were randomly grouped and subjected to the indicated treatments [chow containing PLX4720 (417 mg/kg) and/or Compound 38 (1 mg/kg, 2 times per week intraperitoneally)]. Tumor size was measured at the indicated time points. The experiment was repeated twice. […] When tumors were allowed to reach 500 mm^3 before initiating treatment, 5 of 7 […] mice subjected to BRAFi treatment alone relapsed as drug-resistant tumors (4/5 within 4-6 weeks), whereas only 3 of 6 (50%) subjected to combination treatment developed resistance, albeit more slowly (2/3 after 8 weeks; FIG. 22). […] Proteins prepared at the indicated times from A375 tumors that were subjected in vivo to treatment with Compound 38 were incubated with m^7GTP-beads to capture the eIF4F complex. Shown is time-dependent inhibition of eIF4G1 binding to eIF4E in vivo, concomitant with increased binding of inhibitory 4E-BP1 to eIF4E.

[9] = Donor pH 5.0, Acceptor pH 7.4, read-out: PAMPA Permeability, Pe, Donor pH 5.0
[10] = Donor pH 6.2, Acceptor pH 7.4, read-out: PAMPA Permeability, Pe, Donor pH 6.2
[11] = pH 7.4, Donor pH 7.4, Acceptor pH 7.4, read-out: PAMPA Permeability, Pe, Donor pH 7.4
[12] = aqueous buffer, pH 5.0, read-out: Aqueous Solubility in pION's buffer pH 5.0
[13] = pH 6.2, aqueous buffer, read-out: Aqueous Solubility in pION's buffer pH 6.2
[14] = pH 7.4, aqueous buffer, read-out: Aqueous Solubility in pION's buffer pH 7.4

T1 sequence (Q6NZJ6 whole entry, one chain of several): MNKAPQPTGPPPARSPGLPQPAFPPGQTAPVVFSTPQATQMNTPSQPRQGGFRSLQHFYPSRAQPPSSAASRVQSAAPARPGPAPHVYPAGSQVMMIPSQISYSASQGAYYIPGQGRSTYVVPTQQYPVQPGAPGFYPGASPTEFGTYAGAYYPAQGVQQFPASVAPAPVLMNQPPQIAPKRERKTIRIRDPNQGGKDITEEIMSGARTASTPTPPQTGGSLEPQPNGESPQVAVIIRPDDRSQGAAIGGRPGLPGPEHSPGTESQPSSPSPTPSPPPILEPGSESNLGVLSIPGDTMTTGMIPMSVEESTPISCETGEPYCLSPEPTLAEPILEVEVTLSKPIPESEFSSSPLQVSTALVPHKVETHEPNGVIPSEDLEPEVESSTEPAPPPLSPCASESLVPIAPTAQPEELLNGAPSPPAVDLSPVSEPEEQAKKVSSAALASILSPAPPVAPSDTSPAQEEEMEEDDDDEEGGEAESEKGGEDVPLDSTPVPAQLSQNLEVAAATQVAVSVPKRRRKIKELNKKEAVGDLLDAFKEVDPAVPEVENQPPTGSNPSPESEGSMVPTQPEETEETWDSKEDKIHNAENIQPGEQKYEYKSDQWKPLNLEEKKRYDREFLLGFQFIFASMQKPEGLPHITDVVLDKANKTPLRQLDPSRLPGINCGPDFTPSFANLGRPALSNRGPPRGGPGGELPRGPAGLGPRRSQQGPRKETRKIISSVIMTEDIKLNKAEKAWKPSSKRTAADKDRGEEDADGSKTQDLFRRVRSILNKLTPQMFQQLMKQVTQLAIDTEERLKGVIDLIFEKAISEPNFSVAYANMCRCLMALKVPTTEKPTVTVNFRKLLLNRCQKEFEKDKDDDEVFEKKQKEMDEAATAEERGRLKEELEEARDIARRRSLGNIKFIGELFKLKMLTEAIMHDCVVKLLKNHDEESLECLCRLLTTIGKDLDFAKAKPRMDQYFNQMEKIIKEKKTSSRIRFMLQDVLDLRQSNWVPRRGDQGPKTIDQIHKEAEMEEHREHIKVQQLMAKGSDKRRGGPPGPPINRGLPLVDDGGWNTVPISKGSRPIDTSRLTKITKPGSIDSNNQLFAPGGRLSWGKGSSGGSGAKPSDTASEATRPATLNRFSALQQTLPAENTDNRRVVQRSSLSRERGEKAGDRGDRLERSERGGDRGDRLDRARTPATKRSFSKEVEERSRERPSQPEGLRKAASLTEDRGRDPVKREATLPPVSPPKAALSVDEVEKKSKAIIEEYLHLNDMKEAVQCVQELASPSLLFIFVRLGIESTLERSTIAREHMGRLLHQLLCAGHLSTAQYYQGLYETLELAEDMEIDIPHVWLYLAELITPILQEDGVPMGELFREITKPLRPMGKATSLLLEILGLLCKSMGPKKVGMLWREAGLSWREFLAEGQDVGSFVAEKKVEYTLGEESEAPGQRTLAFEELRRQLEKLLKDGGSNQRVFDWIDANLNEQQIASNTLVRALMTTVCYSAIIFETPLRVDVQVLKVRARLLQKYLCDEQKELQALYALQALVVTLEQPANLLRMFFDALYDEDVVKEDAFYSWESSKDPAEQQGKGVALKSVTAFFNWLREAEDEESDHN

| SMILES | IC50 [1] | solubility [2] | IC50 (A375) | IC50 [3] | Hepatic Microsome Stability (% remaining at 1 Hr) Mouse [4] | Hepatic Microsome Stability (% remaining at 1 Hr) Mouse (no NADPH) [4] | Papp (PAMPA Permeability; [9]) | Papp (PAMPA Permeability; [10]) | Papp (PAMPA Permeability; [11]) | IC50 [5] | solubility [6, 12] | solubility [6, 13] | solubility [6, 14] | Hepatic Microsome Stability (% Remaining at 1 hr) Human [7] | Hepatic Microsome Stability (% Remaining at 1 hr) Human (no NADPH) [7] | IC50 [8] | eIF4G1:eIF4E association (m7GTP pull-down) (eIF4F complex) | Growth of established tumors (~250 mm^3), BRAFi alone (A375 tumors; chow containing PLX4720 (417 mg/kg)) | Tumors resumed growth, BRAFi-treated group (A375 tumors; treatment started at ~250 mm^3, PLX4720 chow) |
| --- | --- | --- | --- | --- | --- | --- | --- | --- | --- | --- | --- | --- | --- | --- | --- | --- | --- | --- | --- |
| O=C(/C=C/c1nc2cc(Cl)ccc2[nH]1)c1c(-c2ccccc2)c2cc(Cl)ccc2[nH]c1=O [Compound 62, 6-Chloro-3-[3-(5-chloro-1H-benzoimidazol-2-yl)-acryloyl]-4-phenyl-1H-quinolin-2-one] | 2 to 10 µM | 0.11 µg/mL (≈ 0.239 µM) | < 2 µM | 2 to 10 µM | 85.64 % remaining | 82.96 % remaining | 290 nm/s | 62 nm/s | 25 nm/s | 2 to 10 µM | 0.34 µg/mL (≈ 0.739 µM) | 0.42 µg/mL (≈ 0.912 µM) | 0.12 µg/mL (≈ 0.261 µM) | 89.89 % Remaining | 54.66 % Remaining | 2 to 10 µM | – | – | – |
| O=C(/C=C/c1ccccc1)c1c(C2CCCCC2)c2cc(Cl)ccc2[nH]c1=O [Compound 12, 6-chloro-3-cinnamoyl-4-cyclohexylquinolin-2(1H)-one] | 10 to 20 µM | 1.5 µg/mL (≈ 3.83 µM) | < 2 µM | > 20 µM | 32.98 % remaining | 63.69 % remaining | 10100 nm/s | 3010 nm/s | 3790 nm/s | 10 to 20 µM | 1.6 µg/mL (≈ 4.08 µM) | 1.4 µg/mL (≈ 3.57 µM) | 1.2 µg/mL (≈ 3.06 µM) | 59.85 % Remaining | 57.73 % Remaining | 2 to 10 µM | – | – | – |
| O=C(/C=C/c1nc2ccccc2[nH]1)c1c(O)nc2ccc(Cl)cc2c1-c1ccccc1 [BI-69A11, reference compound] | – | 0.11 µg/mL (≈ 0.258 µM) | – | – | 48.54 % remaining | 45.01 % remaining | 130 nm/s | 160 nm/s | 420 nm/s | – | 0.16 µg/mL (≈ 0.376 µM) | 0.24 µg/mL (≈ 0.564 µM) | 0.1 µg/mL (≈ 0.235 µM) | 68.24 % Remaining | 61.74 % Remaining | – | – | – | – |
| CCC(=O)N1CCN(c2ccc(-n3c(=O)ccc4cnc5ccc(-c6cnc7ccccc7c6)cc5c43)cc2C(F)(F)F)CC1 [torin1, reference compound] | – | – | – | – | – | – | – | – | – | – | – | – | – | – | – | – | induced dissociation of eIF4G1 from eIF4E in WT but not in 4E-BPDKOMEFs | – | – |
| O=C(/C=C/c1cccnc1)c1c(-c2ccccc2)c2cc(Cl)ccc2[nH]c1=O [Compound 32, 6-Chloro-4-phenyl-3-(3-pyridin-3-yl-acryloyl)-1H-quinolin-2-one] | 2 to 10 µM | – | < 2 µM | 2 to 10 µM | – | – | – | – | – | 2 to 10 µM | – | – | – | – | – | 2 to 10 µM | – | – | – |
| O=C(/C=C/c1nc2ccccc2[nH]1)c1c(-c2ccccn2)c2cc(Cl)ccc2[nH]c1=O [Compound 8, 3-(3-1H-Benzoimidazol-2-yl-acryloyl)-6-chloro-4-pyridin-2-yl-1H-quinolin-2-one] | > 20 µM | – | 10 to 20 µM | > 20 µM | – | – | – | – | – | > 20 µM | – | – | – | – | – | > 20 µM | – | – | – |
| O=C(/C=C/c1cccs1)c1c(-c2ccccc2)c2cc(Cl)ccc2[nH]c1=O [Compound 51, 6-Chloro-4-phenyl-3-(3-thiophen-2-yl-acryloyl)-1H-quinolin-2-one] | > 20 µM | – | 2 to 10 µM | > 20 µM | – | – | – | – | – | 10 to 20 µM | – | – | – | – | – | > 20 µM | – | – | – |
| COc1ccc(Cn2c(/C=C/C(=O)c3c(-c4ccccc4)c4cc(Cl)ccc4[nH]c3=O)nc3cc(Cl)ccc32)cc1 [Compound 54, (E)-6-chloro-3-(3-(5-chloro-1-(4-methoxybenzyl)-1H-benzo[d]imidazol-2-yl)acryloyl)-4-phenylquinolin-2(1H)-one] | 2 to 10 µM | – | 2 to 10 µM | 2 to 10 µM | – | – | – | – | – | 2 to 10 µM | – | – | – | – | – | 2 to 10 µM | – | – | – |
| CCCS(=O)(=O)Nc1ccc(F)c(C(=O)c2c[nH]c3ncc(Cl)cc23)c1F [PLX4720, reference compound] | – | – | – | – | – | – | – | – | – | – | – | – | – | – | – | – | – | largely inhibited | 3/5 |
| O=C(/C=C/c1ccccn1)c1c(-c2cncc(Cl)c2)c2cc(Cl)ccc2[nH]c1=O [Compound 102, 3-((2E)-3-(2-pyridyl)prop-2-enoyl)-6-chloro-4-(5-chloro(3-pyridyl))hydroquinolin-2-one] | 10 to 20 µM | – | 2 to 10 µM | 10 to 20 µM | – | – | – | – | – | 10 to 20 µM | – | – | – | – | – | 10 to 20 µM | – | – | – |

— patent US10577349B2 (Sanford Burnham Prebys Medical Discovery Institute, priority 2015, dated 2020)
